Marks after values point to notes of the source that are not given here.
Legend:
Format in all cases: physicochemical
[1] = Chemical stability of cholecalciferol phosphate acid in skin permeation solvents; conditions: 24 h, 37° C.
Procedure: To assess the chemical stability of the cholecalciferol phosphate acid in the solutions employed in the skin permeation experiments a 1 mg/mL solution of cholecalciferol phosphate acid in propylene glycol (PG) was prepared and incubated at 37° C. for 24 hours. In addition 100 μg/mL cholecalciferol phosphate acid in 90:10 methanol:water and in 80:20 PG:water were also incubated at 37° C. for 24 hours. The concentration pre and post incubation was compared to determine the chemical stability during the permeation studies.

[2] = Cholecalciferol phosphate adhesive suitability / compatibility screen
Procedure: Pre-formulation studies were performed to determine the compatibility of cholecalciferol phosphate (disodium and acid forms) with a range of adhesives (Table 38) that could be used to manufacture of the patch. The compatibility of the drugs with the patch excipients was assessed through checking the clarity of the mixture.
The compatibility of the adhesive with solvents and drug was established. The maximum drug loading in the adhesive following solvent evaporation was determined by mixing the drug, adhesive and co-solvents until a clear solution is obtained at different drug:adhesive ratios by placing a drop of solution onto patch backing sheet, leaving the slide to dry for 3-4 hours and examining the formed fil on the surface of the backings for evidence of drug crystals were assessed using KKmoon digital magnifier with LED light (China). Following patch optimization, the drug-adhesive solution was cast as 10×10 cm squares using of backing (3M™ Scotchpak™ Polyester Backing Film Laminate 9730). A sufficient volume of the adhesive was applied to achieve a target coating of 8 mg/cm^2. Following complete drying of the solvents, the adhesive layer was covered by M3 Release liner (SCOTCHPAK 9755), compressed, and then cut using 34 mm circular manual die cutter (SCP Super Cutting Press).

[3] = Solubility of cholecalciferol and cholecalciferol phosphate (disodium, acid); conditions: visual solubility
Procedure: Aliquots of cholecalciferol, cholecalciferol phosphate disodium, and cholecalciferol phosphate acid were added to a range of solvents including propylene glycol (PG), distilled water, methanol, ethyl acetate, ethanol, n-hexane, and the visual solubility was determined. A precise assessment of the saturation solubility was for some of the solvent systems was made using high-performance liquid chromatography (HPLC). In the HPLC solubility studies, an excess of each solute was added into 2 mL of each test solvent. The solutions were left stirring overnight at room temperature, (RT), 22° C. The saturation of the solutions was confirmed by the visual appearance of crystals and the drug suspensions were filtered through 0.2 μm cellulose acetate syringe filters, diluted with excess of mobile phase, and the solute concentration of each sample was assessed using HPLC.

**Q.** For `C=C1CCC(OP(=O)(O)O)CC1=CC=C1CCCC2(C)C1CCC2C(C)CCCC(C)C` (stereo not drawn) [Cholecalciferol phosphate acid, cholecalciferol phosphate acid], which “stability in donor, extraction and receiver solvent” value [1] is on record?
**A.** appropriate stability

**Q.** What about the Solubility ([2]; DURO-TAK 87-2052 0.268 mL, 10 mg drug, 0.5 mL hexane, 0.4 mL ethyl acetate) of the same molecule?
**A.** Clear

**Q.** And the Solubility ([2]; DURO-TAK 87-9301 100 mg, 5 mg drug, 5 mg dodecyl amine, 0.5 mL methanol, 0.25 mL ethyl acetate)?
**A.** Clear

**Q.** And the Solubility ([2]; Duro-TAK 87-2516 100 mg, 10 mg drug, 10 mg dodecyl amine, 0.5 mL methanol, 0.5 mL ethyl acetate)?
**A.** Clear

**Q.** What about the Solubility ([2]; Duro-TAK 87-2516 100 mg, 10 mg drug, 10 mg dodecyl amine, 1 mL methanol, 1.25 mL ethyl acetate) of the same molecule?
**A.** Clear

**Q.** And the Solubility ([2]; Duro-TAK 87-2516 100 mg, 10 mg drug, 10 mg dodecyl amine, 1.5 mL methanol, 1 mL ethyl acetate)?
**A.** Clear

**Q.** What about the Solubility ([2]; Oppanol B12 1.2 g, 65 mg drug, 15.9 mL hexane) of the same molecule?
**A.** Clear

**Q.** And the Solubility ([2]; Oppanol B12 1.2 g, 65 mg drug, 15.9 mL hexane, 65 mg dodecyl amine)?
**A.** Clear

**Q.** What about the Solubility ([2]; Oppanol B12 2.3 g, 130 mg drug, 32 mL hexane) of the same molecule?
**A.** Clear

**Q.** What about the “compatibility with adhesives and organic solvents” value ([2]; Oppanol B12, DURO-TAK 87-2516, 87-9301 and 87-2052) of the same molecule?
**A.** showed compatibility

**Q.** What about the Solubility ([3]; solvent Ethanol) of the same molecule?
**A.** ~4* mg/mL

**Q.** And the Solubility ([3]; solvent Ethyl acetate)?
**A.** <0.1* mg/mL

**Q.** What about the Solubility ([3]; solvent Hexane) of the same molecule?
**A.** ~40* mg/mL

**Q.** And the Solubility ([3]; solvent Methanol (0.1% TFA))?
**A.** <0.1* mg/mL

**Q.** And the Solubility ([3]; solvent PG)?
**A.** ~10* mg/mL

From patent US20260306421A1, “SYSTEMS AND METHODS FOR TRANSDERMAN PATCH DELIVERY” (VITAMAX PATCH WHOLESALER LLC, priority 2022, published 2026)
